Tests used:
[1] = tested on: cyp19a1b promoter; experiment: EASZY assay: GFP fluorescence in brain of live cyp19a1b-GFP transgenic 4-dpf larvae; assay type: in vivo, zebrafish; conditions: 4-dpf cyp19a1b-GFP larvae, exposure 2 hpf to 4 dpf; for fold induction at 1 µM: Danio rerio, read-out: GFP fluorescence, fold induction above DMSO control
Protocol: Quantification of fluorescence in transgenic cyp19a1b-GFP zebrafish larva brain was performed according to Brion et al. ([2012]). In this assay, estrogenic activity is detected in living 4 days-old larvae (treated or not with an estrogen mimic compound) from the observation of the reporter gene fluorescence in the radial glial cells. […] All photographs were taken using the same parameters: only the head was photographed under a X10 objective, with a 134 ms exposure time and maximal intensity. Photographs were analyzed using the Axiovision Imaging software and fluorescence quantification was performed using the ImageJ software (http://rsbweb.nih.gov/ij/). For each picture, the integrated density was measured, i.e., the sum of the gray-values of all the pixels within the region of interest. A gray-value of 290 was defined as background value. For each micrograph the fluorescence fold induction of fluorescence was calculated comparing the integrated pixel density with the average fluorescence induction obtained in the control group.

[2] = tested on: cyp19a1b gene; experiment: RT-qPCR of cyp19a1b transcripts in wild type 7-dpf larva brains; conditions: for fold induction at 1 µM: Danio rerio, read-out: cyp19a1b gene expression, fold induction relative to DMSO, 1 μM, 7-dpf larvae brains, six independent exposures, Figure 1B
Protocol: (§1) For subsequent RT-qPCR and in situ hybridization analysis with wild type zebrafish, groups of 80 embryos (for each condition) were placed after 1 day post-fertilization (1-dpf) in a large glass flask containing 100 ml of embryonic medium (Mouriec et al., [2009b]). […] The embryos were held in the exposure flasks until 7-dpf larva stage. […] Embryos were maintained in the exposure dishes until 4-dpf larva stage. During the treatment period, 100% of the exposure medium was renewed every 24 h (for both wild type and transgenic zebrafish).
Tissue was sonicated (10 s, 3 times) in 250 μL Trizol Reagent (Invitrogen) and RNA extractions were carried out according to the manufacturer's protocol. Reverse transcription was carried out by incubating 2μg total RNA with 1μg of random primer oligonucleotides, 2.5ṁM dNTPs, and 50 U MMLV-RT (Promega) in the appropriate buffer for 10 min at 65°C and 60 min at 37°C. Quantitative Polymerase chain reaction (qPCR) experiments were performed in an iCycler thermocycler coupled to the MyiQ detector (Bio-Rad. Hercules, CA, USA) using iQ SYBR-Green Supermix (Bio-Rad) according to the manufacturer's protocol. The following primers were used: ef1 (fw) 5′-[…]-3′; ef1 (rev) 5′-[…]-3′; cyp19a1b (AroB; fw) 5′-[…] For each condition, the RT-PCR experiment was run in triplicates. Expression levels of ef1 mRNA were used to normalize cyp19a1b expression levels. Melting curve and PCR efficiency analyses were performed to confirm correct amplification. For quantification of PCR results, the threshold cycle (Ct) was determined for each reaction. Ct values for each gene of interest were normalized with the housekeeping gene ef1, using the ΔΔCt method. Normalized values were used to calculate the degree of induction or inhibition expressed as a “fold difference” compared to normalized control values.

[3] = tested on: cyp19a1b transcripts; experiment: cyp19a1b in situ hybridization on 7-dpf brain sections; assay type: in vivo, zebrafish; conditions: 1 μM, 7-dpf larvae; for distribution of cyp19a1b transcripts in the whole brain: transverse sections
Protocol: as §1
Larvae used for in situ hybridization experiments originated from the same exposition groups than RT-qPCR experiments. After exposure to the different conditions, 10 wild type 7-dpf larvae (for each treatment) were fixed overnight at 4°C in 4% paraformaldehyde, before embedding in parrafin. Serial thin transverse sections ([…]) were placed on cryofrost slides and subjected to in situ hybridization experiments. Sense and antisense digoxigenin-labeled riboprobes for the cyp19a1b gene were transcribed using the Digoxigenin RNA labeling kit in accordance with the manufacturer's instructions (Roche, Mannheim, Germany) and as previously described (Menuet et al., [2005]). The brain sections were processed for in situ hybridization using stringent conditions as previously published (D'Amico et al., [2011], [2013]). After NBT/BCIP revelation, sections were counterstained with DAPI, and mounted in a drop of vectashield (Vector Laboratories). All sections were photographed with an Olympus PROVIS AX70 microscope with a digital camera (Olympus SP71), or a Nikon multizoom AZ100 macroscope with a DS-Ri1 color camera.

[4] = target: T1, zfERα (Danio rerio, UniProt P57717); experiment: cyp19a1b-luciferase reporter gene assay in U251-MG glial cells transfected with zfERα; assay type: cell-based, zebrafish; set-up: containing the coding regions of each zebrafish estrogen receptor cDNA; expressed in transfected cells; host or cells: human U251-MG glial cells (ER-negative); conditions: 10–6 M, 24 h, U251-MG cells with ERα, vs DMSO
T1 sequence (P57717 1-569): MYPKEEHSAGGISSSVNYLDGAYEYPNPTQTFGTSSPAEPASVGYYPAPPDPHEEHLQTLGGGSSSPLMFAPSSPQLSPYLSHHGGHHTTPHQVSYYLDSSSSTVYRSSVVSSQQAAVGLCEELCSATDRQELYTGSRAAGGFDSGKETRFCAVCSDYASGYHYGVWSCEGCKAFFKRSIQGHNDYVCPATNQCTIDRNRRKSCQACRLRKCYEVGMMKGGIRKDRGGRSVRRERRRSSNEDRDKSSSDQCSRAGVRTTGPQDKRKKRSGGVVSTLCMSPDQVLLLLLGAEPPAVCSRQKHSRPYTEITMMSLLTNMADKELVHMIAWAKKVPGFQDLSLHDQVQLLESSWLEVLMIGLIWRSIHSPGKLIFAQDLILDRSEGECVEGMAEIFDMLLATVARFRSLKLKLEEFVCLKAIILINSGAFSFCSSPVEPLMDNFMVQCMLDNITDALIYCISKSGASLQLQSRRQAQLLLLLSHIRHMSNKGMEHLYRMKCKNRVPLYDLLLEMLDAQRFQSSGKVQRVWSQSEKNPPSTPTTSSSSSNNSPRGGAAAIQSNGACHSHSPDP
Protocol: The medium was also supplemented with 20 U/mL penicillin, 20 μg/mL streptomycin, and 50 ng/mL amphotericin B (Gibco). For transfections, cells were plated in 24-well plates at a density of 25,000 cells/ml in the same medium, except the fetal calf serum was charcoal-treated and used at a concentration of 2.5%. Cells were transfected with 25 ng/well either the vector expression containing or not the zfERα, zfERβ1, zfERβ2 coding region and cytomegalovirus [CMV]−β-Galactosidase, and 150 ng/well of the cyp19a1b-Luciferase reporter plasmid, using JetPEI as a transfection reagent (Polyplus Transfection, Illkirch, France). […] Luciferase activity was measured 24 h later (Luciferase assay system, Promega, Madison, WI, USA). β-Galactosidase activity was used to normalize transfection efficiency. Chemicals were tested in at least 3 independent experiments and each experiment was performed in triplicate.

| Compound | GFP fluorescence, fold induction above DMSO control ([1]; 1 μM) | cyp19a1b gene expression, fold induction relative to DMSO ([2]; 1 μM, 7-dpf larvae brains, six independent exposures, Figure 1B) | cyp19a1b transcripts in the nucleus recessus posterioris (nrp), caudal hypothalamus [3] | distribution of cyp19a1b transcripts in the whole brain [3] | cyp19a1b-luciferase reporter gene induction [4] | fold induction at 1 µM [1] | fold induction at 1 µM [2] |
| --- | --- | --- | --- | --- | --- | --- | --- |
| CC(c1ccccc1)(c1ccc(O)cc1)c1ccc(O)cc1 [BPAP, 4,4′-(1-phenylethylidene)bisphenol] | did not affect GFP fluorescence signal | no effect | increase in cyp19a1b transcripts in the nrp region (Figure 5H) albeit to a lower levels | induces expression of cyp19a1b transcripts in only a few (xeno) estrogen-sensitive cyp19a1b expression sites | did not stimulate | – | – |
| O=S(=O)(c1ccc(O)cc1)c1ccc(O)cc1 [BPS, bis-(4-hydroxyphenyl)sulfone] | – | – | – | identical to EE2- and BPA-treated animals | did not stimulate | 6 | ~41 |
| Oc1ccc(C(c2ccc(O)cc2)(C(F)(F)F)C(F)(F)F)cc1 [BPAF, 2,2-bis(4-hydroxylphenyl)hexafluoropropane] | – | – | – | identical to EE2- and BPA-treated animals | significant stimulation | 14 | ~43 |

From article PMC4805609, “Estrogenic Effects of Several BPA Analogs in the Developing Zebrafish Brain” (Frontiers in Neuroscience, 2016)
